Numbered stars: 1 amine (or outer) side, 2 acyl side, 3 side chain; on linkers, the order of the positions; unused ones are H or OH. Side chains are listed from the residue outwards. Peptide text beside a SMILES is read from it. * marks the point of attachment. C18 diacid = O=C(O)CCCCCCCCCCCCCCCCC(=O)*; γGlu = O=C(O)[C@H](CCC(=O)[*:2])N[*:1]; AEEA = NCCOCCOCC(=O)O
Key:
isolated ECD (GLP-1R) = details: ref [23],[24]; cited from earlier work
Excerpt: (§1) GLP-1R, is defined by seven transmembrane helices, an extracellular N terminus, and an intracellular C terminus, which is ligand binding via the extracellular and intracellular face, respectively, belongs to family B1 of the seven-transmembrane G protein-coupled receptors.

full-length GLP-1R = details: ref [23],[24]; cited from earlier work
Excerpt: as §1

Human GLP-1R = Human GLP-1R (Homo sapiens, UniProt P43220); experiment: In vitro GLP-1R activation, human receptor; assay type: cell-based; details: mean ± SD
DIO mice [1] = experiment: Hypoglycemic duration test in non-fasted DIO mice; assay type: in vivo; details: male DIO mice, not fasted, 25 nmol/kg single s.c., n = 6
Description: The antihyperglycemic efficacy of PEP20 was investigated in male DIO mice. The BGLs of PEP20 group decreased rapidly to the normoglycemic state (<15 mmol/L) in 1 h after the administration of 25 nmol/kg. […] BGLs were detected using a one-touch blood glucose meter. Glucose-lowering duration under 8.35 mmol/L BGL was also checked

Mouse GLP-1R = target: T1, Mouse GLP-1R (Mus musculus, UniProt O35659); experiment: In vitro GLP-1R activation, mouse receptor; assay type: cell-based; details: mean ± SD
T1 sequence (O35659 22-463): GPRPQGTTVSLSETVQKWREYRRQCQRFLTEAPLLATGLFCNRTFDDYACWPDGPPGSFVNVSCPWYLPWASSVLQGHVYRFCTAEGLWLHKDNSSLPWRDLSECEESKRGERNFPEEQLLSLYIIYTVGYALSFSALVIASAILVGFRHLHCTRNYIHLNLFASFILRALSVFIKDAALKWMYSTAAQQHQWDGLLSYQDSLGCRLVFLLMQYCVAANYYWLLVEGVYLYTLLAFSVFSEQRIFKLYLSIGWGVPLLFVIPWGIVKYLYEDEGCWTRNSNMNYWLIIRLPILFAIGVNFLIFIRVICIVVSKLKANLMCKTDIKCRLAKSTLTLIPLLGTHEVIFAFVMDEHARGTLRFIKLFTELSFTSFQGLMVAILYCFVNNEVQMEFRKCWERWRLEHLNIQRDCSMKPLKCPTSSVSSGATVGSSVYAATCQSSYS

DIO mice [2] = experiment: Chronic in vivo study, 4 weeks, DIO mice; details: 25 nmol/kg s.c. once daily for 4 weeks
Description: To further examine the therapeutic potential of PEP20, chronic in vivo studies were performed by a daily subcutaneous (s.c.) injection of PEP20 (25 nmol/kg) in DIO mice for 4 weeks. […] Body weight, food intake, and water consumption were measured daily. DIO mice were subjected to OGTT at week 0 and at week 4 to evaluate the advance of diabetic statuses. HbA1c were measured after the treatment using an AU680 automatic biochemical analyzer (Beckman Coulter, Fullerton, […]).

[3] = test system: diet-induced obesity (DIO) mice; experiment: Oral glucose tolerance test (glucoregulatory and insulin secretion assay) in DIO mice; assay type: in vivo; details: male DIO mice, n = 6
Description: Half hour after single dose injection of different samples, the mice were administrated with glucose (2.0 g/kg), and then the blood glucose and insulin levels were detected before and at 15, 30, 45, 60 and 120 min by the ELISA kit (Merck).

Sequence of Human GLP-1R (P43220 24-463): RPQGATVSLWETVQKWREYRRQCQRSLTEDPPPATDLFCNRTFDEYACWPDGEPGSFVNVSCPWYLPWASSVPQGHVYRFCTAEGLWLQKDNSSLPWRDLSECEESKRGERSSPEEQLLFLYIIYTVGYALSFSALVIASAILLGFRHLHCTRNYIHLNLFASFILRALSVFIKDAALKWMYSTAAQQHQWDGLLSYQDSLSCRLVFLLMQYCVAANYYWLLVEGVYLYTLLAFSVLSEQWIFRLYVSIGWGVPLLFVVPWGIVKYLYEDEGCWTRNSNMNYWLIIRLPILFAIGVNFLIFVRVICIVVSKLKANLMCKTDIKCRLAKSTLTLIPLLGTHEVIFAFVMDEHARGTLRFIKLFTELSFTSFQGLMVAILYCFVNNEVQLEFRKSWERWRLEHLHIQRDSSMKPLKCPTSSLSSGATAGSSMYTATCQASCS

Row | SMILES | IC50 (isolated ECD (GLP-1R)) [nM] | IC50 (full-length GLP-1R) [nM] | Emax (Human GLP-1R) [%] | duration of glucose-lowering effect (DIO mice [1]; followed for 96 h) | lowering of glucose level for 0–96 h (AUC0–96 h) compared with vehicle group (DIO mice [1]) [%] | time to normoglycemic state (<15 mmol/L) after administration (DIO mice [1]) [h] | Emax (Mouse GLP-1R) [%] | body weight gain (DIO mice [2]; n = 6) | decrease of OGTT AUC at 4 weeks compared with week 0 (DIO mice [2]; n = 6) [%] | food intake (DIO mice [2]; n = 6) | HbA1c versus control group (DIO mice [2]; p < 0.001, n = 6) | plasma insulin concentrations from 15 to 60 min versus control ([3]; OGTT, 25 nmol/kg s.c., ELISA) | glucose-lowering percentage compared with vehicle control group ([3]; OGTT, 25 nmol/kg single s.c., glucose 2.0 g/kg) [%] | blood glucose level (BGL) half an hour after glucose challenge ([3]; 25 nmol/kg single s.c., oral glucose 2.0 g/kg, vehicle 23.6 ± 3.1) [mmol/L]
1 | CC[C@H](C)[C@H](NC(=O)[C@H](Cc1ccccc1)NC(=O)[C@H](CCC(=O)O)NC(=O)[C@H](CCCCN)NC(=O)[C@H](C)NC(=O)[C@H](C)NC(=O)[C@H](CCC(N)=O)NC(=O)CNC(=O)[C@H](CCC(=O)O)NC(=O)[C@H](CC(C)C)NC(=O)[C@H](Cc1ccc(O)cc1)NC(=O)[C@H](CO)NC(=O)[C@H](CO)NC(=O)[C@@H](NC(=O)[C@H](CC(=O)O)NC(=O)[C@H](CO)NC(=O)[C@@H](NC(=O)[C@H](Cc1ccccc1)NC(=O)[C@@H](NC(=O)CNC(=O)[C@H](CCC(=O)O)NC(=O)[C@H](C)NC(=O)[C@@H](N)Cc1c[nH]cn1)[C@@H](C)O)[C@@H](C)O)C(C)C)C(=O)N[C@@H](C)C(=O)N[C@@H](Cc1c[nH]c2ccccc12)C(=O)N[C@@H](CC(C)C)C(=O)N[C@H](C(=O)N[C@@H](CCCCN)C(=O)NCC(=O)N[C@@H](CCCNC(=N)N)C(N)=O)C(C)C [GLP-1, Glucagon-like peptide-1] | ~100 | ~1 |  |  |  |  |  |  |  |  |  |  |  | 
2 | CC(C)C[C@H](NC(=O)[C@H](Cc1ccc(O)cc1)NC(=O)[C@H](C)NC(=O)[C@H](CO)NC(=O)[C@@H]1CCCN1C(=O)[C@H](CO)NC(=O)[C@H](CO)NC(=O)[C@H](Cc1ccc(O)cc1)NC(=O)[C@H](Cc1ccccc1)NC(=O)[C@@H](N)Cc1ccccc1)C(=O)N[C@@H](CCC(=O)O)C(=O)N[C@@H](CCCCNC(=O)COCCOCCNC(=O)COCCOCCNC(=O)CC[C@H](NC(=O)CCCCCCCCCCCCCCCCC(=O)O)C(=O)O)C(=O)NCC(=O)NCC(=O)N1CCC[C@H]1C(=O)N[C@@H](CO)C(=O)N[C@@H](CO)C(=O)NCC(=O)N[C@@H](C)C(=O)N1CCC[C@H]1C(=O)N1CCC[C@H]1C(=O)N1CCC[C@H]1C(=O)N[C@@H](CO)C(=O)O [PEP20] (H-FFYSSPSAYLEK([AEEA-AEEA-γGlu-C18 diacid])GGPSSGAPPPS-OH; N-terminus and C-terminus assumed) |  |  | 98 ± 8.1 | at least 96 h | 63.8 | ≤ 1 | 99 ± 7.2 | effectively suppressed | 22.1 | effectively suppressed | reduction | significantly greater than those of the control group | 60.2 | 10.1
